Test results taken from patent publication EP3095872A1, “A METHOD OF PRODUCING ALPHA AMINO ACIDS” (Evonik Degussa GmbH, priority 2015, dated 2016).
Like-named read-outs stand apart in the source and are kept apart here. Marks after values point to notes of the source that are not given here.

Tests used:
[1] = system: leucine-DH; test: deamination of L-norleucine and L-leucine using leucine-DH, NADH formation at 340 nm; format: biochemical; settings: 10 mM substrate; 10 mM NAD+; pH 8.5; UV absorption at 340 nm
Description: Deamination of L-norleucine and L-leucine (both commercial standards) was performed using a purified leucine-DH. Reactions contained 10 mM substrate, 10 mM NAD+ and 5 µl leucine-DH in a final volume of 1 ml Tris-HCl (pH 8.5, 0.1 M). Oxidation of the amino acids was successful as indicated by increasing UV absorption at 340 nm, corresponding to (concomitant) formation of NADH (Figure 3).

[2] = target: T1, CYPBSß (Bacillus subtilis, UniProt O31440); test: conversion of fatty acid substrates with CYPBSß, oxidant H2O2; format: biochemical; settings: for 2a-d: H2O2; for Conversion: 3 µM P450BSß, KPi pH 7.0, 24 h, values marked a based on substrate depletion
T1 construct: made in house
T1 sequence (O31440 whole entry): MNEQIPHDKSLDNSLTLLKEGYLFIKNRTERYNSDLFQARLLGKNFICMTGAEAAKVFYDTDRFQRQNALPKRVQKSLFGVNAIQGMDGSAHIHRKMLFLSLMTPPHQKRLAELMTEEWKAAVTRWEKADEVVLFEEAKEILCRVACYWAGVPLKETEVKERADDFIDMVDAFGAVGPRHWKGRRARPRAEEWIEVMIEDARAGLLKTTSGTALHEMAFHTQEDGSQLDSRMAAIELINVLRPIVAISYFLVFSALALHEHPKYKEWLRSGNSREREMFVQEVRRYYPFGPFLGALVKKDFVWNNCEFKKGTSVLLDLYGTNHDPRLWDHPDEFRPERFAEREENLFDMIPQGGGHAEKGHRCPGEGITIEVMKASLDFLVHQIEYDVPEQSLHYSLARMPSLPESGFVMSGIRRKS
Description: (§1) P450Cla was ordered as synthetic gene and cloned into the pET28a expression vector. […] The dialysis buffer was supplemented with 300 mM NaCl to prevent precipitation of P450Cla. Next, hydroxylation of fatty acid substrates 1a-d (scheme 2) was performed employing purified P450Cla and P450BSß. The oxidant source was varied in case of P450Cla while only H2O2 was used with P450BSß.
Reaction conditions for P450BSß: 3µM P450BSß; KPi buffer (pH 7.0; 0.1 M); 5 % EtOH (cosolvent). […] All products were identified by GC-MS and/or comparison with authentic materials.
(§2) All reactions were performed in closed glass vials for 24 h reaction time at RT with 170 rpm shaking. The reactions were quenched by addition of 100 µl 5 N HCl. Extractions were performed with 500 µl EtOAc containing 0.1 % 1-decanol as internal standard. After drying over Na2SO4, derivatization of acids to corresponding methyl esters was realized by mixing 150 µl of organic phase with 90µl of MeOH prior to supplementation of 20 µl of TMSCHN2 for esterification. Samples were analyzed by GC-FID and GC-MS. Commercial standards of 2-hydroxycaproic acid (2a), 2-hydroxyoctanoic acid (2b) and 2-oxooctanoic acid (4b) were used as references. Calibration curves were obtained from standards 1a-d and 2a-b prepared identically to the reaction mixtures (5 concentration points from 10 µM to 1 mM).

[3] = system: P450Cla; test: conversion of fatty acid substrates 1a-d with P450Cla, oxidant H2O2; format: biochemical; settings: for 2a-d: H2O2; for Conversion: 3 µM P450Cla, 24 h, RT, values marked a based on substrate depletion
Description: as §1
Reaction conditions for P450Cla: 3µM P450Cla; Tris-HCl (pH 7.5; 0.1 M); 2.5 to 5 % EtOH (cosolvent for the substrate).
as §2

[4] = target: YcnD (Bacillus subtilis, UniProt P94424); test: oxidation/dehydrogenation of alpha-hydroxy acids 2a-b, YcnD alone; settings: 10 mM substrate; YcnD without HICDH; KPi pH 7.5; RT, 24 h
Chain of YcnD (P94424 whole entry): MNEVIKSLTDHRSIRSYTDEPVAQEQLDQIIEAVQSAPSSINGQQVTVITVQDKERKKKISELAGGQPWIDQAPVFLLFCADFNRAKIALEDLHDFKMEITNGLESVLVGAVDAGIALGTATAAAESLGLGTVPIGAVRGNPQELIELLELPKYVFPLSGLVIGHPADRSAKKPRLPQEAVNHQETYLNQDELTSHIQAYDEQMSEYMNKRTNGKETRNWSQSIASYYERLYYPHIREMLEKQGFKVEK

[5] = system: D/L-HICDH; test: oxidation/dehydrogenation of alpha-hydroxy acids 2a-b using D/L-HICDH; format: biochemical; settings: 10 mM substrate; KPi pH 7.5; 1 mM NAD+ (also 6.75 mM); RT, 24 h
[6] = system: D/L-HICDH-YcnD; test: oxidation/dehydrogenation of alpha-hydroxy acids 2a-b using D/L-HICDH with NADH-oxidase YcnD; format: biochemical; settings: 10 mM substrate; with YcnD and catalase; KPi pH 7.5; 1 mM NAD+ (also 6.75 mM); RT, 24 h
[7] = system: L- and D-HICDH; test: oxidation of alpha-hydroxy acids with L- and D-HICDH, NADH formation at 340 nm; format: biochemical; settings: for NADH concentration: after 1 min reaction time, estimated (Figure 2); for Oxidation of the α-hydroxy acid substrates: 1 or 10 mM substrate, 10 mM NAD+, pH 8.5, UV absorption at 340 nm
Description: A modified protocol for oxidation of 2-hydroxy acids with L-and D-HICDH was established allowing oxidation of 2-hydroxyhexanoic acid and 2-hydroxyoctanoic acid (both commercial standards) that are produced in step 1 of the cascade (Scheme 1). Reactions contained 1 or 10 mM substrate, 1 % DMSO, 10 mM NAD+ and 0.25 mg of L- and D-HICDH (cell free freeze-dried lysates) in a final volume of 1 ml Tris-HCl (pH 8.5, 0.1 M). Oxidation of the α-hydroxy acid substrates was successful as indicated by increasing UV absorption at 340 nm, corresponding to (concomitant) formation of NADH (Figure 2).

[8] = system: P450Cla; test: alpha-hydroxylation of selected fatty acids, catalytic and kinetic characterization of P450Cla; format: biochemical; settings: for specific activity U mg^-1: P450Cla 48 kDa, values only relevant at initial rate; for Coupling*: mol product per mol H2O2; for Product: 10 mM fatty acid, 0.5 µM P450Cla (C10), 1 µM (C8, C6), Tris-HCl pH 7.5, RT, triplicate
Description: Hydroxylation of selected fatty acids was carried out using a fresh preparation of purified P450Cla. P450Cla was characterised for key catalytic parameters specific activities were determined for three selected substrates as shown in Table 1. Table 1: Catalytic and kinetic characterization of P450Cla for conversion of 10 mM of selected fatty acids. All reactions were performed in triplicate.
Conditions: 0.5 µM P450Cla used in reactions with C10; 1 µM P450Cla used in reactions with C8 and C6; All reactions were performed in Tris-HCl (pH 7.5, 0.1 M) at RT and 170 rpm shaking in closed glass vials; *molProduct^-1 molH2O2^-1; ^§molecular weight of P450Cla is 48 kDa, values only relevant at initial rate.

[9] = system: P450Cla, L- and D-HICDH, leucine-DH; test: three-step one-pot cascade of fatty acid to amino acid (TLC ninhydrin, GC-MS); format: biochemical
Description: Hydroxylation of all four fatty acid substrates (C4, C6, C8, C10) was performed as described above using 3 µM P450Cla, 10 mM substrate and 2.5 % EtOH in a final volume of 1 ml Tris-HCl (pH 7.5, 0.1 M). H2O2 was supplemented every 30 min (23 times; 36.8 mM total). After 24 h, the hydroxylation reaction (step 1) was stopped by adding 1200 U catalase (1 mg), 20µl of (NH4)2SO4(2.5 M stock) and the pH was adjusted to 8.5 using 1 M NaOH. For step 2 and 3 of the cascade, Land D-HICDH (0.25 mg), 10 mM NAD+ and 5 µl purified leucine-DH were added to the reaction mixture. After 24 h reaction time, 2 µl of the reaction volume were spotted on a TLC plate along with a commercial standard of L-norleucine as reference material (positive control). After elution of products acetic acid/H2O/n-butanol as mobile phase (1:1:3), the plate was stained with ninhydrin and heated gently for colour development. […] The following control reactions were performed to confirm the overall success of the two step cascade leaving one of the following components out of the reaction: 1) P450; 2) L- or D-HICDH; 3) Leu-DH; 4) fatty acid substrate; 5) H2O2; 6) (NH4)2SO4; 7) NAD+. The reaction samples were analyzed by TLC as shown before, but formation of norleucine could not be detected. […]

[10] = target: T2, P450 BM3 variant M2 (Priestia megaterium, UniProt P14779, I402M/R48S/Y52W); format: biochemical, Bacillus megaterium; settings: 50 mM substrate; O2 as oxidant; GDH/glucose NADPH regeneration; absent in control reactions
T2 construct: made in house; host or cells: E. coli BL21 Gold (DE3)-derived E. coli lacIQ1 Gold (DE3)
T2 sequence (P14779 whole entry R48S/Y52W/I402M): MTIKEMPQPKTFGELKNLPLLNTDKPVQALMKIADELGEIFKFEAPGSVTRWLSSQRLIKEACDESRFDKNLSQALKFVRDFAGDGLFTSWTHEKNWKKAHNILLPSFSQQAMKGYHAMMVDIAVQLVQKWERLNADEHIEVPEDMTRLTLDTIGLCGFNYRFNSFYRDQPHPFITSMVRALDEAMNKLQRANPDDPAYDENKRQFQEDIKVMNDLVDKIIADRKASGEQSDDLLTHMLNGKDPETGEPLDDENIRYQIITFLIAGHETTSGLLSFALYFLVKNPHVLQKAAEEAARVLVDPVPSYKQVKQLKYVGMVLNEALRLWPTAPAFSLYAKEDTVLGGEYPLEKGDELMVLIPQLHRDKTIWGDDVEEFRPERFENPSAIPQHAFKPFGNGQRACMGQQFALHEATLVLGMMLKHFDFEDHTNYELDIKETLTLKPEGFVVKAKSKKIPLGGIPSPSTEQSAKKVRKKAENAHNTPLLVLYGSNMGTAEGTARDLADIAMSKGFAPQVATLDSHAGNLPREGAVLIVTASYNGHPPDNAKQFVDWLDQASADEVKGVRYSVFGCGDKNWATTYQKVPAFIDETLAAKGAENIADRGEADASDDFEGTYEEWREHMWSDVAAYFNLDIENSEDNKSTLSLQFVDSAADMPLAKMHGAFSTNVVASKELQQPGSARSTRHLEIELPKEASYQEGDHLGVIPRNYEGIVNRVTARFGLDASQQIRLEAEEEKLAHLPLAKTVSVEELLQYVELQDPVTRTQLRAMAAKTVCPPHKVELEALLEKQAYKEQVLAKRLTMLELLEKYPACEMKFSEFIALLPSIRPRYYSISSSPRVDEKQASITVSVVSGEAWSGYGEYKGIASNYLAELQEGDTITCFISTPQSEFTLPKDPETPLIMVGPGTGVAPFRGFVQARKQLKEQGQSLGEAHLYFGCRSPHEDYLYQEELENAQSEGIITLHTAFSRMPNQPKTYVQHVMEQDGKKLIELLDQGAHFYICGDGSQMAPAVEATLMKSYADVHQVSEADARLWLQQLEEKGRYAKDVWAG
Description: Ethyl acetoxy-butanoate (EAB) was converted with P450 BM3 variant M2 employing O2 as oxidant.
The essential NADPH cofactor was regenerated using a glucose dehydrogenase (GDH) and glucose as shown in Scheme 3. [drawing 4]
Reactions were done in 1 mL scale (KPi-buffer, pH 7.5, 0.1 M) containing following components: • 12 U GDH • 100 mM glucose • 400 µM NADP+ • 50 mM EBA (substrate) in DMSO (5 % V/V DMSO final) • 50 mg cell free freeze dried lysate of P450 BM3 variant M2
For analysis, 100 µl of the reaction volume were mixed with 100 µl acetonitrile followed by centrifugation to remove insoluble particles. The supernatant was diluted 1:50 in H2O/acetonitrile (50:50; V/V) followed by injection into the LC-MS.
In addition, the product peaks elute earlier than the substrate (3.699 min) indicating a higher polarity possibly due to a hydroxylation of EAB.

[11] = 5 mM substrate, H2O2 8 mM total
[12] = 10 mM substrate, H2O2 16 mM total
[13] = 5 mM substrate, H2O2 9.6 mM total
[14] = 10 mM substrate, H2O2 19.2 mM total

## CC(C)C[C@H](N)C(=O)O [L-leucine]
[1]
  Oxidation of the amino acids: successful

## CCCC[C@H](N)C(=O)O [L-norleucine]
[1]
  Oxidation of the amino acids: successful

## CCCCCC(=O)O [Substrate 1a, hexanoic acid]
[2]; 5 mM substrate
  2a-d: 08 mM
[2]; [11]
  Conversion: 16%
[2]; 5 mM substrate, share of 2a, 3a not detected
  α/β-Regioselectivity (2a-d vs 3a-d): 2a >95%^e
[2]; 10 mM substrate
  2a-d: 1.1 mM
[2]; [12]
  Conversion: 11%
[2]; 10 mM substrate, share of 2a, 3a not detected
  α/β-Regioselectivity (2a-d vs 3a-d): 2a >95%^e
[3]; 5 mM substrate
  2a-d: 3.1 mM
[3]; [13]
  Conversion: 62%
[3]; [14]
  Conversion: 51%
[3]; 10 mM substrate, values marked c outside of calibration range
  2a-d: 5.1^c mM

## CCCCCCCC(=O)O [Substrate 1b, octanoic acid]
[3]; [13]
  Conversion: 96%
[3]; [14]
  Conversion: >99%

## CCCCCCCCCC(=O)O [Substrate 1c, decanoic acid]
[2]; [11]
  Conversion: 54^a %
[2]; 5 mM substrate, ratio α-hydroxy/β-hydroxy product
  α/β-Regioselectivity (2a-d vs 3a-d): 2c/3c 64/36
[2]; [12]
  Conversion: 46^a %
[2]; 10 mM substrate, ratio α-hydroxy/β-hydroxy product
  α/β-Regioselectivity (2a-d vs 3a-d): 2c/3c 56/44
[3]; [13]
  Conversion: >99^a %
[3]; [14]
  Conversion: >99^a %

## CCCCC(O)C(=O)O (centres unmarked) [Substrate 2a, 2-hydroxycaproic acid]
[4]
  α-Ketoacid 4a/b detected [Y/N]: No
[5]
  α-Ketoacid 4a/b detected [Y/N]: No
[6]
  α-Ketoacid 4a/b detected [Y/N]: No
[7]; 1 mM substrate
  NADH concentration: 45 µM
[7]; 10 mM substrate
  NADH concentration: 142 µM
[7]
  Oxidation of the α-hydroxy acid substrates: successful

## CCCCCCC(O)C(=O)O (centres unmarked) [Substrate 2b, 2-hydroxyoctanoic acid]
[4]
  α-Ketoacid 4a/b detected [Y/N]: No
[5]
  α-Ketoacid 4a/b detected [Y/N]: No
[6]
  α-Ketoacid 4a/b detected [Y/N]: Yes (traces)
[7]; 1 mM substrate
  NADH concentration: 41 µM
[7]; 10 mM substrate
  NADH concentration: 126 µM
[7]
  Oxidation of the α-hydroxy acid substrates: successful

## CCCCCC(=O)O [Substrate C6, hexanoic acid]
[8]
  Selectivity [% α-OH]: > 90%
  specific activity: ≥ 1 U mg^-1
[8]; 5 min, H2O2 0.8 mM
  Selectivity [% α-OH]: >95%
  TON: 139 min⁻¹
  TTN: 695
  specific activity U mg^-1: 2.9 U mg^-1
  Coupling*: 87%
[8]; 15 min, H2O2 0.8 mM
  Selectivity [% α-OH]: >95%
  TON: 47 min⁻¹
  TTN: 706
  specific activity U mg^-1: 1.0 U mg^-1
  Coupling*: 88%
[8]; 30 min, H2O2 1.6 mM
  Selectivity [% α-OH]: >95%
  TON: 29 min⁻¹
  TTN: 880
  specific activity U mg^-1: 0.6 U mg^-1
  Coupling*: 55%
[9]; 10 mM hexanoic acid, Figure 4
  production of norleucine (GC-MS after derivatization): successful production of norleucine
[9]; 10 mM substrate, step 1 24 h, steps 2 and 3 24 h, one pot
  formation of norleucine / amino acid (TLC, ninhydrin staining): distinct red spot

## CCCCCCCC(=O)O [Substrate C8, octanoic acid]
[8]
  specific activity: ≥ 1 U mg^-1
[8]; 5 min, H2O2 0.8 mM
  Product: 0.49 ± 0.02 mM
  TON: 98 min⁻¹
  TTN: 488
  specific activity U mg^-1: 2.0 U mg^-1
  Coupling*: 61%
[8]; 15 min, H2O2 0.8 mM
  Product: 0.51 ± 0.01 mM
  TON: 34 min⁻¹
  TTN: 506
  specific activity U mg^-1: 07 U mg^-1
  Coupling*: 63%
[8]; 30 min, H2O2 1.6 mM
  Product: 0.94 ± 0.05 mM
  TON: 31 min⁻¹
  TTN: 938
  specific activity U mg^-1: 0.7 U mg^-1
  Coupling*: 59%

## Ethyl acetoxy-butanoate [EAB]
[10]
  products of mass 190.08+1 (LC-MS): formation of two product peaks
